Measured values from ChEMBL document CHEMBL3991601, “The target landscape of clinical kinase drugs” (Science, 2017).
Active and inactive are the calls of the source. Cut-off read from the data, not from the text of the source, for most assays here: actives have a measured Kd and inactives only a lower limit.

Experiments:
[1] = biological target: T1, Cytochrome c1, heme protein, mitochondrial (Homo sapiens, UniProt P08574)
T1 sequence (P08574 whole entry): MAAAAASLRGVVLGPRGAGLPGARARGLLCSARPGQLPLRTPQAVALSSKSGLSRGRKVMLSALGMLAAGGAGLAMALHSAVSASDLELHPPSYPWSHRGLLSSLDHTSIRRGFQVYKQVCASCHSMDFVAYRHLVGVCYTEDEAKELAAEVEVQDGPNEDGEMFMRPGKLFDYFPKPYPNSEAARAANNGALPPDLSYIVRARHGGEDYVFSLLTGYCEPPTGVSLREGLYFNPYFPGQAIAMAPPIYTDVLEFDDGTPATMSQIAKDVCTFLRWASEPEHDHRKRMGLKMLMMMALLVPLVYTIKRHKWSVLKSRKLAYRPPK

ADP/ATP translocase 3 = biological target: T2, ADP/ATP translocase 3 (Homo sapiens, UniProt P12236)
T2 sequence (P12236 whole entry): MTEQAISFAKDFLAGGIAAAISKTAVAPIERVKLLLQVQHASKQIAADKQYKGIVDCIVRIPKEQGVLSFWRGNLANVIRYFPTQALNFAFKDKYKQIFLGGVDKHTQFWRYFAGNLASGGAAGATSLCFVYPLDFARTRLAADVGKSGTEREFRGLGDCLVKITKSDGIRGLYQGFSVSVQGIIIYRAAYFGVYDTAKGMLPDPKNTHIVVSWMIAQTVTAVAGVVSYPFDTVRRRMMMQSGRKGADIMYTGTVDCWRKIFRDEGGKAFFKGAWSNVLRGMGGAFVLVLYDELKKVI

Ephrin type-B receptor 2 = biological target: T3, Ephrin type-B receptor 2 (Homo sapiens, UniProt P29323)
T3 sequence (P29323 whole entry): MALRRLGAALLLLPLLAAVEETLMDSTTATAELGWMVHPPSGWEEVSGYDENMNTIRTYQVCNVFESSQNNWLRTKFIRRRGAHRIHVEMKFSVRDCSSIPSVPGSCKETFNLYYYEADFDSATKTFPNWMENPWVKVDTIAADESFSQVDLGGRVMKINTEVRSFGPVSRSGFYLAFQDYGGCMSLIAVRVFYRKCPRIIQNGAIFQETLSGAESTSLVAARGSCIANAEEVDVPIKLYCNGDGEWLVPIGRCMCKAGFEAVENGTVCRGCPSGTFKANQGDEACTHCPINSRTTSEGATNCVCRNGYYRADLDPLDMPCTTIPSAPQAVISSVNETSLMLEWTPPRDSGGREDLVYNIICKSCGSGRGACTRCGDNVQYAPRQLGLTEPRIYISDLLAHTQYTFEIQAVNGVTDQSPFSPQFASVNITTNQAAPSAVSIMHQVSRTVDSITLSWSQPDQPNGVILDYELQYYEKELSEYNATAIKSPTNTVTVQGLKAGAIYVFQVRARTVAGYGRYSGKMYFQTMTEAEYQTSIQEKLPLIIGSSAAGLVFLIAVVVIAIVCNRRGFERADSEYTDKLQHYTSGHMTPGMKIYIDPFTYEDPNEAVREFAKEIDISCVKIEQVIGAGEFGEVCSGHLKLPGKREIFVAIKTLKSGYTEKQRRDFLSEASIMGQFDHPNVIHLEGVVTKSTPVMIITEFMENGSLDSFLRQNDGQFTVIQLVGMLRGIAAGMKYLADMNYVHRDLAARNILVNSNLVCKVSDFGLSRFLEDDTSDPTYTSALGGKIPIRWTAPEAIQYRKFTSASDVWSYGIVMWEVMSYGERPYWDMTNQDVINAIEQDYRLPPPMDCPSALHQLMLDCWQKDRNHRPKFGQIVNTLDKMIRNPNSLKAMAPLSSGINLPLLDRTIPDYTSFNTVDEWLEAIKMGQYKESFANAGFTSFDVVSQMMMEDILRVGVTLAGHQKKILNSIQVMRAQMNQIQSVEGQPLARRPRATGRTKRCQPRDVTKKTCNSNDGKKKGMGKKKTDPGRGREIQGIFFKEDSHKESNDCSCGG

[2] = biological target: T4, Calcium/calmodulin-dependent protein kinase type IV (Homo sapiens, UniProt Q16566)
T4 sequence (Q16566 whole entry): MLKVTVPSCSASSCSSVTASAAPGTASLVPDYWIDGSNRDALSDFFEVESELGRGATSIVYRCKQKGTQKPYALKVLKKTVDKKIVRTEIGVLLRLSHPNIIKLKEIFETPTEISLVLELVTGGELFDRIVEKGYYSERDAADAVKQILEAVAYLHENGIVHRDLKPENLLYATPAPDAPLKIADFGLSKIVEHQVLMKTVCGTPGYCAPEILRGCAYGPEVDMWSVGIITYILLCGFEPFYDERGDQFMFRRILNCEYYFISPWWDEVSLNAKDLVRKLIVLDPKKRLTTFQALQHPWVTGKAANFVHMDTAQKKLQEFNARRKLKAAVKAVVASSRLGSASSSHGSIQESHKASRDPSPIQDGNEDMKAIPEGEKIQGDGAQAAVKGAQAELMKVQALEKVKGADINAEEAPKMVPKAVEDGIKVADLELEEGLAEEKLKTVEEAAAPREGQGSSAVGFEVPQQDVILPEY

[3] = biological target: Mitogen-activated protein kinase kinase kinase kinase 4 (Homo sapiens, UniProt O95819)
[4] = biological target: T5, Serine/threonine-protein kinase TBK1 (Homo sapiens, UniProt Q9UHD2)
T5 sequence (Q9UHD2 whole entry): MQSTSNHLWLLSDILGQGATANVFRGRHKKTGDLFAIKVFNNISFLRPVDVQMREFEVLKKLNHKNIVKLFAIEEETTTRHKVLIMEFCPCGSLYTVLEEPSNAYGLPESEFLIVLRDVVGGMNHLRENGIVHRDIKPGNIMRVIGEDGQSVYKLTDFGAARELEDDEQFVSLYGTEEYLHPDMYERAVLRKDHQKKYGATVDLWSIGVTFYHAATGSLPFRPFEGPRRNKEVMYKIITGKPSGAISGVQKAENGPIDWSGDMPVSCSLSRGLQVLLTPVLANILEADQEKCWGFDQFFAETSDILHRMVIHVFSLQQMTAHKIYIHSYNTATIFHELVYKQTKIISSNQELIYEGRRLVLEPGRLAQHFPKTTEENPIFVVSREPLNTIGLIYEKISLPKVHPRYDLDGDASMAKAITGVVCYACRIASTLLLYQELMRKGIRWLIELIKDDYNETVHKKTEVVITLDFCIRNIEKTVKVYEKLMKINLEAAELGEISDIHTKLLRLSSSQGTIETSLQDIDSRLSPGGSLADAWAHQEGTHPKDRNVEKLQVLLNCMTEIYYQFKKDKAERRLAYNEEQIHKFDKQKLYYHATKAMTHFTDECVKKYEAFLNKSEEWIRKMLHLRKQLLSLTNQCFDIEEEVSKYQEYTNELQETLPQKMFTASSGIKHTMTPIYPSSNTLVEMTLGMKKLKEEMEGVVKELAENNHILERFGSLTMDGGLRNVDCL

[5] = biological target: Myosin light chain kinase, smooth muscle (Homo sapiens, UniProt Q15746)
Note: in the data inactive means no Kd found up to 30 µM.

Sequence of Myosin light chain kinase, smooth muscle (Q15746 whole entry): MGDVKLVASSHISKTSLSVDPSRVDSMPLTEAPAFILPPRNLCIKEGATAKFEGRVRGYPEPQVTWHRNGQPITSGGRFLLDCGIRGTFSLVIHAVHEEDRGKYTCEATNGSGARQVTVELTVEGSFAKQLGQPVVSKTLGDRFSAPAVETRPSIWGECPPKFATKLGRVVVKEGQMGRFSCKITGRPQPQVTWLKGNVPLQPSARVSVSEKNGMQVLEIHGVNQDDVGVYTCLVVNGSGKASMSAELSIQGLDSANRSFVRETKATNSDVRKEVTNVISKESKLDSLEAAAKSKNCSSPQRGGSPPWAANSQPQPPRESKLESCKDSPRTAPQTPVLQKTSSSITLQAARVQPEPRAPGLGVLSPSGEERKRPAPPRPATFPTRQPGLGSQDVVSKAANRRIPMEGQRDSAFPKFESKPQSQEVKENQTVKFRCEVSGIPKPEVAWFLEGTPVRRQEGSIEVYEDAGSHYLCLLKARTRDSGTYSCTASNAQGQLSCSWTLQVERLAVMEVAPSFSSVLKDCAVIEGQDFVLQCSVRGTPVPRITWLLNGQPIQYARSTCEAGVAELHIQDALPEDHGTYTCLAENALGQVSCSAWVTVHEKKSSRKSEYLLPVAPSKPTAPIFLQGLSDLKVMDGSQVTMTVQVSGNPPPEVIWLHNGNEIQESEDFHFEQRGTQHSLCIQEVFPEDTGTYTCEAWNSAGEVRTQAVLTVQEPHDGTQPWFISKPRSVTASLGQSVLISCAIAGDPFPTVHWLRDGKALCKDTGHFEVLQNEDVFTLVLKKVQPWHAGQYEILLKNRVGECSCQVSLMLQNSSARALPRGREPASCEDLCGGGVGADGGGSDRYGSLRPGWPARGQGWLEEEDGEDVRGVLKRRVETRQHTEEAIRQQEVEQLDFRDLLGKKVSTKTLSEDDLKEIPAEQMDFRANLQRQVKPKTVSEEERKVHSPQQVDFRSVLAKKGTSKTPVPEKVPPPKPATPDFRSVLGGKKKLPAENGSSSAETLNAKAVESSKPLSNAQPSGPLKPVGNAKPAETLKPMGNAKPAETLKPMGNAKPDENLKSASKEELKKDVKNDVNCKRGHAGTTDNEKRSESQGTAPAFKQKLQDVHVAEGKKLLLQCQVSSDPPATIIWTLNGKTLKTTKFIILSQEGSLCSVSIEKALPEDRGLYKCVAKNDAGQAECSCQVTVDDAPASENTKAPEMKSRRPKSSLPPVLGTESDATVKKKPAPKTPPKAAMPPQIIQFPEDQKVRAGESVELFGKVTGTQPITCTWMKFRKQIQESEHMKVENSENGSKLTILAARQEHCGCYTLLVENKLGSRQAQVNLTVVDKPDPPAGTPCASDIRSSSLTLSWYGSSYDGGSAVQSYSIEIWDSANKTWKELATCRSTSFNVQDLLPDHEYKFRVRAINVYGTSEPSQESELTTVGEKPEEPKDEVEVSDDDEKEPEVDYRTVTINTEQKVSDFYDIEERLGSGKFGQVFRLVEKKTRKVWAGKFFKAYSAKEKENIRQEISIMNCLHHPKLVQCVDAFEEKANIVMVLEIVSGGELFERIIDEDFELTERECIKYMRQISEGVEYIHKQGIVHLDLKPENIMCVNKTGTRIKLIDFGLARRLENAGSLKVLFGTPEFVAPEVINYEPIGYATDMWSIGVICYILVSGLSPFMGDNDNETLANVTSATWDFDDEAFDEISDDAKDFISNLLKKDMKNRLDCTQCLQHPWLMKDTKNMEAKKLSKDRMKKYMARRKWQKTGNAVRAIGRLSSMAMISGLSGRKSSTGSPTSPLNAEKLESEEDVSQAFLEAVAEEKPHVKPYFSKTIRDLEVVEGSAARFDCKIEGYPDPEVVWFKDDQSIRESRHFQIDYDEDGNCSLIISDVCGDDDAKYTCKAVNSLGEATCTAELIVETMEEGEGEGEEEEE
Sequence of Mitogen-activated protein kinase kinase kinase kinase 4 (O95819 whole entry): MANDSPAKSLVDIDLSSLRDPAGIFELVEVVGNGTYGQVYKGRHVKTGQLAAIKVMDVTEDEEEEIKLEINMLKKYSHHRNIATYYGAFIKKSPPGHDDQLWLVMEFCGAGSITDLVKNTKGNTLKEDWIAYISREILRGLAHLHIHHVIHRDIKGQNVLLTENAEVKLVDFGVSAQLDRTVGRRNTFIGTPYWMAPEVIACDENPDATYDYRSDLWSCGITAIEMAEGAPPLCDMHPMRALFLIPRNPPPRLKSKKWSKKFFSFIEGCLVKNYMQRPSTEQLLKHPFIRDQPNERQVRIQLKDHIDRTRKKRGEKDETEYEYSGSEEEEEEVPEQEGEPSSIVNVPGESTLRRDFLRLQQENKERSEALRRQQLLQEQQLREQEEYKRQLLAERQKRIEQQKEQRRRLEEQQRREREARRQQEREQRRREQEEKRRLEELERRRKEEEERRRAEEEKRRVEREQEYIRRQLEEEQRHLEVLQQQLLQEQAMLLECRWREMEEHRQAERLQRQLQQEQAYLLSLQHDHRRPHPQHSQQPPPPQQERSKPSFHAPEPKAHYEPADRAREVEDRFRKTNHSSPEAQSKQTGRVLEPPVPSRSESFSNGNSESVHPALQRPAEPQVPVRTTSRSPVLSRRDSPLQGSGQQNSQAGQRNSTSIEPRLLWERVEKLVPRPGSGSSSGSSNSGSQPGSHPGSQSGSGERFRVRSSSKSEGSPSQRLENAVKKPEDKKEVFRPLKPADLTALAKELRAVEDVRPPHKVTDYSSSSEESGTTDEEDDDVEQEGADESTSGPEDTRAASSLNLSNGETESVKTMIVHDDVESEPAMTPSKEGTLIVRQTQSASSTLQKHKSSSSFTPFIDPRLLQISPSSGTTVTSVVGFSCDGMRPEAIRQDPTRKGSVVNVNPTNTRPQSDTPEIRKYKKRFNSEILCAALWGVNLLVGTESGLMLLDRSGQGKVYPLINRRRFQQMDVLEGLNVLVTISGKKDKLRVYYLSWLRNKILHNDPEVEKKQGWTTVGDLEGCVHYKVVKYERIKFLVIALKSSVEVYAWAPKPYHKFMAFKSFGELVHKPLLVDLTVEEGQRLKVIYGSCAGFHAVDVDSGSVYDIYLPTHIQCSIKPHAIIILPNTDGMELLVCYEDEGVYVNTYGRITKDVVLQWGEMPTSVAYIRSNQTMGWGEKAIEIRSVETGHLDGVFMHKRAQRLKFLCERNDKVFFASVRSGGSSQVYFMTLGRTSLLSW

| SMILES | Kd [1] | Kd (ADP/ATP translocase 3) | Kd (Ephrin type-B receptor 2) | Kd [2] | Kd [3] | Kd [4] | Kd [5] |
| --- | --- | --- | --- | --- | --- | --- | --- |
| CCCS(=O)(=O)Nc1ccc(F)c(C(=O)c2c[nH]c3ncc(-c4ccc(Cl)cc4)cc23)c1F [VEMURAFENIB] | > 30 µM (inactive) | > 30 µM (inactive) | > 30 µM (inactive) | > 30 µM (inactive) | > 30 µM (inactive) | > 30 µM (inactive) | > 30 µM (inactive) |
| CNC(=O)c1ccc(C)c(-n2c(C)cc(OCc3ccc(F)cc3F)c(Br)c2=O)c1 [PH-797804] | > 30 µM (inactive) | > 30 µM (inactive) | > 30 µM (inactive) | > 30 µM (inactive) | > 30 µM (inactive) | > 30 µM (inactive) | > 30 µM (inactive) |
| CN1CCC(COc2cnc(-c3cccc(Cn4nc(-c5cccc(C#N)c5)ccc4=O)c3)nc2)CC1 [TEPOTINIB] | > 30 µM (inactive) | > 30 µM (inactive) | > 30 µM (inactive) | > 30 µM (inactive) | > 30 µM (inactive) | > 30 µM (inactive) | > 30 µM (inactive) |
| COc1cc(N2CCC(N3CCN(C)CC3)CC2)ccc1Nc1ncnc(Nc2ccccc2S(=O)(=O)C(C)C)n1 [ASP-3026] | > 30 µM (inactive) | > 30 µM (inactive) | > 30 µM (inactive) | > 30 µM (inactive) | > 30 µM (inactive) | > 30 µM (inactive) | > 30 µM (inactive) |
| CNC(=O)c1ccc(-c2cnc3ncc(Cc4ccc5ncccc5c4)n3n2)cc1F [CAPMATINIB] | > 30 µM (inactive) | > 30 µM (inactive) | > 30 µM (inactive) | > 30 µM (inactive) | > 30 µM (inactive) | > 30 µM (inactive) | > 30 µM (inactive) |
| CCn1c(=O)c(-c2cc[nH]n2)cc2c(C)nc(N)nc21 [VOXTALISIB] | > 30 µM (inactive) | > 30 µM (inactive) | > 30 µM (inactive) | > 30 µM (inactive) | > 30 µM (inactive) | > 30 µM (inactive) | > 30 µM (inactive) |
| Cc1cc2c(F)c(Oc3ncnn4cc(OC[C@@H](C)OC(=O)[C@H](C)N)c(C)c34)ccc2[nH]1 [BRIVANIB ALANINATE] | > 30 µM (inactive) | > 30 µM (inactive) | > 30 µM (inactive) | > 30 µM (inactive) | 46.2 µM (active) | > 30 µM (inactive) | > 30 µM (inactive) |
| COc1cc(OC)c(/C=C/S(=O)(=O)Cc2ccc(OC)c(NCC(=O)O)c2)c(OC)c1 [RIGOSERTIB] | > 30 µM (inactive) | > 30 µM (inactive) | > 30 µM (inactive) | > 30 µM (inactive) | > 30 µM (inactive) | > 30 µM (inactive) | > 30 µM (inactive) |
| C=CC(=O)N1CCC(Oc2cc3c(Nc4ccc(Cl)c(Cl)c4F)ncnc3cc2OC)CC1 [POZIOTINIB] | > 30 µM (inactive) | > 30 µM (inactive) | 2.24 µM (active) | > 30 µM (inactive) | > 30 µM (inactive) | > 30 µM (inactive) | > 30 µM (inactive) |
| Cc1ccc(-n2nc(C(C)(C)C)cc2NC(=O)NCc2cc(F)ccc2Oc2ccc3c(cnn3CCO)c2)cc1 [PEXMETINIB] | > 30 µM (inactive) | > 30 µM (inactive) | > 30 µM (inactive) | > 30 µM (inactive) | 0.222 µM (active) | > 30 µM (inactive) | 0.081 µM |
| Cn1cc(-c2ccc(F)c(C(F)(F)F)c2)nc1C1CCN(c2ncnc3[nH]ncc23)CC1 [LY-2584702] | > 30 µM (inactive) | > 30 µM (inactive) | > 30 µM (inactive) | > 30 µM (inactive) | > 30 µM (inactive) | > 30 µM (inactive) | > 30 µM (inactive) |
| CC[C@H](Nc1ncnc2[nH]cnc12)c1nc2cccc(F)c2c(=O)n1-c1ccccc1 [IDELALISIB] | > 30 µM (inactive) | > 30 µM (inactive) | > 30 µM (inactive) | > 30 µM (inactive) | > 30 µM (inactive) | > 30 µM (inactive) | > 30 µM (inactive) |
| O=C1NC(=O)/C(=C/c2ccc3nccc(-c4ccncc4)c3c2)S1 [GSK-1059615] | > 30 µM (inactive) | > 30 µM (inactive) | > 30 µM (inactive) | > 30 µM (inactive) | > 30 µM (inactive) | > 30 µM (inactive) | > 30 µM (inactive) |
| CNC(=O)c1cc(Oc2ccc(NC(=O)Nc3ccc(Cl)c(C(F)(F)F)c3)c(F)c2)ccn1 [REGORAFENIB] | > 30 µM (inactive) | > 30 µM (inactive) | > 30 µM (inactive) | > 30 µM (inactive) | > 30 µM (inactive) | > 30 µM (inactive) | > 30 µM (inactive) |
| CN1N=C(N)c2cn([C@@H]3O[C@H](COP(=O)(O)O)[C@@H](O)[C@H]3O)c3ncnc1c23 [TRICIRIBINE PHOSPHATE] | > 30 µM (inactive) | > 30 µM (inactive) | > 30 µM (inactive) | > 30 µM (inactive) | > 30 µM (inactive) | > 30 µM (inactive) | > 30 µM (inactive) |
| CN1CCC(CNc2ccc3ncc(-c4cccc(OC(F)(F)F)c4)n3n2)CC1 [SGI-1776] | > 30 µM (inactive) | > 30 µM (inactive) | > 30 µM (inactive) | > 30 µM (inactive) | > 30 µM (inactive) | > 30 µM (inactive) | > 30 µM (inactive) |
| CC(C)Nc1cc(-c2c[nH]c(C(=O)N[C@H](CO)c3cccc(Cl)c3)c2)c(Cl)cn1 [ULIXERTINIB] | > 30 µM (inactive) | > 30 µM (inactive) | > 30 µM (inactive) | > 30 µM (inactive) | > 30 µM (inactive) | > 30 µM (inactive) | > 30 µM (inactive) |
